Experiments:
Fas = Fas expression in human islets (Western blot, RT-PCR, immunostaining); assay type: cell-based; conditions: 33.3 mM glucose with IL-1Ra
Description: Western blot analysis. Islets were cultured in a culture medium in non-adherent plastic dishes. One day after isolation, the medium was changed and groups of 200 islets were incubated for 44 hours in culture medium containing 5.5 or 33.3 mM glucose without or with 2 ng/ml IL-1β or 500 ng/ml IL-1Ra. At the end of the incubations, islets were washed in PBS, suspended in 50 μl sample buffer containing 125 mM Tris-HCl, pH 6.8, 4% SDS, 10% glycerol, 0.3% bromphenol blue, 1.8% β-mercaptoethanol and boiled for 5 min. Equivalent amounts of each treatment group were run on 15% SDS polyacrylamide gels. […] Intensity of bands was analyzed using Multianalyst™ (Bio Rad, Laboratories inc., Hercules, Calif.).
RNA extraction, RT-PCR and sequencing of RT-PCR product. […] The conditions of the PCR amplification for IL-1β and Fas were: denaturation 30 seconds at 94° C., annealing 30 seconds at 60° C. and elongation 30 seconds at 72° C., followed for real time PCR by quantification 5 seconds at 80° C., 45 cycles. […] For quantitative analysis, we used the Light Cycler quantitative PCR system (Roche, Basel, Switzerland) and performed quantitative PCR with a commercial kit (Light Cycler-DNA Master SYBR Green I; Roche). […]

IL-1β = IL-1β release from human blood monocytes exposed to leptin; assay type: cell-based
Description: Human blood monocytes were isolated as described previously (37), cultured in RPMI 1640 (Invitrogen) containing 100 U/ml penicillin, 100 μg/ml streptomycin and 10% fetal calf serum and exposed to 10 or 500 nM leptin.
Cytokine release. Cytokine release was evaluated in the culture medium collected before the termination of each experiment using human IL-1β and IL-1Ra ELISA kits (R&D Systems Inc.).

Row | Substance | glucose-dependent induction of Fas-receptor protein and mRNA (Fas) | IL-1β release from peripheral blood monocytes (IL-1β; 15 hours) | IL-1β release from peripheral blood monocytes (IL-1β; 48 hours)
1 | Interleukin 1 receptor antagonist [IL-1Ra] | hindered |  | 
2 | leptin: rh leptin (PeproTech); protein encoded by the ob gene |  | increased IL-1β release | did not significantly affect IL-1β release
